These results are taken from US20250034167A1, “HETEROCYCLIC COMPOUNDS AND METHODS OF USE” (AMGEN INC., priority 2021, published 2025).

For this test, the system named is Phosphorylation of ERK1/2 in AsPC-1 cells. The test is described as follows: Phospho-ERK1/2 MSD Assay. In kind it is cell-based. To be noted: Homo sapiens. Here is the method:
Sixteen hours prior to compound treatment, AsPC-1 cells were seeded in 96-well cell culture plates at a density of 25,000 cells/well and incubated at 37° C., 5% CO2. A compound dose-response titration was diluted in growth media, added to appropriate wells of a cell culture plate, and then incubated at 37° C., 5% CO2 for 2 hours.

The mark [1] stands for this setting: ASPC1, read-out: 2 h p-ERK (AsPC-1 cells), IC50, AsPC-1 cells, 2 h compound treatment.
[2] abbreviates: ASPC1, 2 h, read-out: 2 h p-ERK (AsPC-1 cells), IC50, AsPC-1 cells, 2 h compound treatment.

Read-outs that look alike come from different tables or passages of the source.

For the compound `CCc1c(F)ccc2cc(O)cc(-c3ncc4c(N5CCC[C@@](C)(O)C5)nc(OC[C@@]56CCCN5C[C@H](F)C6)nc4c3F)c12` [Example 38, (R)-1-(7-(8-ethyl-7-fluoro-3-hydroxynaphthalen-1-yl)-8-fluoro-2-(((2R,7aS)-2-fluorotetrahydro-1H-pyrrolizin-7a(5H)-yl)methoxy)pyrido[4,3-d]pyrimidin-4-yl)-3-methyl-piperidin-3-ol], under setting [1], the concentration for half-maximal inhibition (IC50) worked out at 5 nM. Take `CCc1c(F)ccc2cc(O)cc(-c3ncc4c(N5CCC[C@](C)(N)C5)nc(OC[C@@]56CCCN5C[C@H](F)C6)nc4c3F)c12` [Example 45, 4-(4-((S)-3-Amino-3-methylpiperidin-1-yl)-8-fluoro-2-(((2R,7aS)-2-fluorotetrahydro-1H-pyrrolizin-7a(5H)-yl)methoxy)pyrido[4,3-d]pyrimidin-7-yl)-5-ethyl-6-fluoronaphthalen-2-ol]: under setting [2], the IC50 was 2960 nM. On to `CCc1c(F)ccc2cc(O)cc(-c3ncc4c(N5CC[C@H](F)[C@H](O)C5)nc(OC[C@@]56CCCN5C[C@H](F)C6)nc4c3F)c12` [Example 47, (3R,4S)-1-(7-(8-Ethyl-7-fluoro-3-hydroxynaphthalen-1-yl)-8-fluoro-2-(((2R,7aS)-2-fluorotetrahydro-1H-pyrrolizin-7a(5H)-yl)methoxy)pyrido[4,3-d]pyrimidin-4-yl)-4-fluoropiperidin-3-ol], for which the IC50 under setting [2] stood at 222 nM. Still for that read-out and setting: the same measure for `CCc1c(F)ccc2cccc(-c3ncc4c(N5CCC[C@@](C)(O)C5)nc(OC[C@@]56CCCN5C[C@H](F)C6)nc4c3F)c12` [Example 48, (R)-1-(7-(8-Ethyl-7-fluoronaphthalen-1-yl)-8-fluoro-2-(((2R,7aS)-2-fluorotetrahydro-1H-pyrrolizin-7a(5H)-yl)methoxy)pyrido[4,3-d]pyrimidin-4-yl)-3-methylpiperidin-3-ol]: 341 nM. Regarding `CCc1c(F)ccc2cc(O)cc(-c3ncc4c(N5CCC[C@@](C)(O)C5)nc(OC[C@]56CCCN5C[C@H](F)C6)nc4c3F)c12` [Example 53, (R)-1-(7-(8-ethyl-7-fluoro-3-hydroxynaphthalen-1-yl)-8-fluoro-2-(((2R,7aR)-2-fluorotetrahydro-1H-pyrrolizin-7a(5H)-yl)methoxy)pyrido[4,3-d]pyrimidin-4-yl)-3-methylpiperidin-3-ol], the IC50 under setting [1] is 13 nM. As for `C[C@@]1(O)CCCN(c2nc(OC[C@@]34CCCN3C[C@H](F)C4)nc3c(F)c(-c4cc(O)cc5ccc(F)c(F)c45)ncc23)C1` [Example 59, (R)-1-(7-(7,8-Difluoro-3-hydroxynaphthalen-1-yl)-8-fluoro-2-(((2R,7aS)-2-fluorotetrahydro-1H-pyrrolizin-7a(5H)-yl)methoxy)pyrido[4,3-d]pyrimidin-4-yl)-3-methylpiperidin-3-ol], under setting [2], the IC50 was found to be 33 nM.

On to `CCc1c(F)ccc2cc(O)cc(-c3ncc4c(N5CC6CC5C(C)(O)C6)nc(OC[C@@]56CCCN5C[C@H](F)C6)nc4c3F)c12` (stereo partly drawn) [Example 71, 2-(7-(8-Ethyl-7-fluoro-3-hydroxynaphthalen-1-yl)-8-fluoro-2-(((2R,7aS)-2-fluorotetrahydro-1H-pyrrolizin-7a(5H)-yl)methoxy)pyrido[4,3-d]pyrimidin-4-yl)-6-methyl-2-azabicyclo[2.2.1]heptan-6-ol], for which the IC50 under setting [2] amounted to 1170 nM. In the case of `CCc1c(F)ccc2cc(O)cc(-c3ncc4c(N5CCC[C@@H](NC(=S)NCCOC)C5)nc(OC[C@@]56CCCN5C[C@H](F)C6)nc4c3F)c12` [Example 74, 1-((R)-1-(7-(8-ethyl-7-fluoro-3-hydroxynaphthalen-1-yl)-8-fluoro-2-(((2R,7aS)-2-fluorotetrahydro-1H-pyrrolizin-7a(5H)-yl)methoxy)pyrido[4,3-d]pyrimidin-4-yl)piperidin-3-yl)-3-(2-methoxyethyl)thiourea], the IC50 under setting [2] turned out to be 2710 nM.

As to `CCc1c(F)ccc2cc(O)cc(-c3ncc4c(N5CCC[C@@](C)(NC(C)=O)C5)nc(OC[C@@]56CCCN5C[C@H](F)C6)nc4c3F)c12` [Example 76, N-((R)-1-(7-(8-Ethyl-7-fluoro-3-hydroxynaphthalen-1-yl)-8-fluoro-2-(((2R,7aS)-2-fluorotetrahydro-1H-pyrrolizin-7a(5H)-yl)methoxy)pyrido[4,3-d]pyrimidin-4-yl)-3-methylpiperidin-3-yl)acetamide], the IC50 under setting [2] was found to be 1100 nM. For the compound `CCc1c(F)ccc2cc(O)cc(-c3ncc4c(N5CCC[C@@](C)(NC(=O)OC)C5)nc(OC[C@@]56CCCN5C[C@H](F)C6)nc4c3F)c12` [Example 77, Methyl ((R)-1-(7-(8-ethyl-7-fluoro-3-hydroxynaphthalen-1-yl)-8-fluoro-2-(((2R,7aS)-2-fluorotetrahydro-1H-pyrrolizin-7a(5H)-yl)methoxy)pyrido[4,3-d]pyrimidin-4-yl)-3-methylpiperidin-3-yl)carbamate], the IC50 under setting [2] came to 1530 nM. The same measure, in the same setting: the same measure for `CCc1c(F)ccc2cc(O)cc(-c3ncc4c(N5CCC[C@@H](NC(=O)OC)C5)nc(OC[C@@]56CCCN5C[C@H](F)C6)nc4c3F)c12` [Example 78, Methyl ((R)-1-(7-(8-ethyl-7-fluoro-3-hydroxynaphthalen-1-yl)-8-fluoro-2-(((2R,7aS)-2-fluorotetrahydro-1H-pyrrolizin-7a(5H)-yl)methoxy)pyrido[4,3-d]pyrimidin-4-yl)piperidin-3-yl)carbamate]: 244 nM; for `CCc1c(F)ccc2cc(O)cc(-c3ncc4c(N5CC(n6ccnc6)C5)nc(OC[C@@]56CCCN5C[C@H](F)C6)nc4c3F)c12` [Example 91, 4-(4-(3-(1H-Imidazol-1-yl)azetidin-1-yl)-8-fluoro-2-(((2R,7aS)-2-fluorotetrahydro-1H-pyrrolizin-7a(5H)-yl)methoxy)pyrido[4,3-d]pyrimidin-7-yl)-5-ethyl-6-fluoronaphthalen-2-ol]: 5130 nM; for `CCc1c(F)ccc2cc(O)cc(-c3ncc4c(N5CCCC(=O)CC5)nc(OC[C@@]56CCCN5C[C@H](F)C6)nc4c3F)c12` [Example 95, 1-(7-(8-Ethyl-7-fluoro-3-hydroxynaphthalen-1-yl)-8-fluoro-2-(((2R,7aS)-2-fluorotetrahydro-1H-pyrrolizin-7a(5H)-yl)methoxy)pyrido[4,3-d]pyrimidin-4-yl)azepan-4-one]: 74 nM. For `CCc1c(F)ccc2cc(O)cc(-c3ncc4c(N5CCCCC(=O)C5)nc(OC[C@@]56CCCN5C[C@H](F)C6)nc4c3F)c12` [Example 127, 1-(7-(8-Ethyl-7-fluoro-3-hydroxynaphthalen-1-yl)-8-fluoro-2-(((2R,7aS)-2-fluorotetrahydro-1H-pyrrolizin-7a(5H)-yl)methoxy)pyrido[4,3-d]pyrimidin-4-yl)azepan-3-one], under setting [2], the IC50 worked out at 8 nM.

As for `CCc1c(F)ccc2cc(O)cc(-c3ncc4c(N5CCC[C@@H](CO)C5)nc(OC[C@@]56CCCN5C[C@H](F)C6)nc4c3F)c12` [Example 128, 5-Ethyl-6-fluoro-4-(8-fluoro-2-(((2R,7aS)-2-fluorotetrahydro-1H-pyrrolizin-7a(5H)-yl)methoxy)-4-((R)-3-(hydroxymethyl)piperidin-1-yl)pyrido[4,3-d]pyrimidin-7-yl)naphthalen-2-ol], under setting [2], the half-inhibitory concentration (IC50) was determined as 293 nM. Same read-out and setting: the same measure for `CCc1c(F)ccc2cc(O)cc(-c3ncc4c(N5CCC=CC(=O)C5)nc(OC[C@@]56CCCN5C[C@H](F)C6)nc4c3F)c12` [Example 134, 1-(7-(8-Ethyl-7-fluoro-3-hydroxynaphthalen-1-yl)-8-fluoro-2-(((2R,7aS)-2-fluorotetrahydro-1H-pyrrolizin-7a(5H)-yl)methoxy)pyrido[4,3-d]pyrimidin-4-yl)-1,2,6,7-tetrahydro-3H-azepin-3-one]: 259 nM; for `CCc1c(F)ccc2cc(O)cc(-c3ncc4c(N5CCCC(O)(C(F)(F)F)C5)nc(OC[C@@]56CCCN5C[C@H](F)C6)nc4c3F)c12` (stereo partly drawn) [Example 156, 1-(7-(8-Ethyl-7-fluoro-3-hydroxy-naphthalen-1-yl)-8-fluoro-2-(((2R,7aS)-2-fluorotetrahydro-1H-pyrrolizin-7a(5H)-yl)methoxy)pyrido[4,3-d]pyrimidin-4-yl)-3-(trifluoromethyl) piperidin-3-ol]: 172 nM; for `CCc1c(F)ccc2cc(O)cc(-c3ncc4c(N5CCCC(O)(C6CC6)C5)nc(OC[C@@]56CCCN5C[C@H](F)C6)nc4c3F)c12` (stereo partly drawn) [Example 157, 3-Cyclopropyl-1-(7-(8-ethyl-7-fluoro-3-hydroxy-naphthalen-1-yl)-8-fluoro-2-(((2R,7aS)-2-fluorotetrahydro-1H-pyrrolizin-7a(5H)-yl)methoxy)pyrido[4,3-d]pyrimidin-4-yl)piperidin-3-ol]: 1240 nM.

As to `NS(=O)(=O)[C@@H]1CCCN(c2nc(OC[C@@]34CCCN3C[C@H](F)C4)nc3c(F)c(-c4cc(O)cc5ccc(F)c(F)c45)ncc23)C1` [Example 165, (R)-1-(7-(7,8-Difluoro-3-hydroxynaphthalen-1-yl)-8-fluoro-2-(((2R,7aS)-2-fluorotetrahydro-1H-pyrrolizin-7a(5H)-yl)methoxy)pyrido[4,3-d]pyrimidin-4-yl)piperidine-3-sulfonamide], under setting [2], the IC50 was found to be 1160 nM. The same measure, in the same setting: the same measure for `CCc1c(F)ccc2cc(O)cc(-c3ncc4c(N5CCC[C@@](C)(O)C5)nc(OC[C@@]56CCCN5C[C@H](F)C6)nc4c3Cl)c12` [Example 168, (R)-1-(8-Chloro-7-(8-ethyl-7-fluoro-3-hydroxynaphthalen-1-yl)-2-(((2R,7aS)-2-fluorotetrahydro-1H-pyrrolizin-7a(5H)-yl)methoxy)pyrido[4,3-d]pyrimidin-4-yl)-3-methylpiperidin-3-ol]: 34 nM. The same measure, in the same setting: the same measure for `CCc1c(F)ccc2cc(O)cc(-c3ncc4c(N5CCC[C@@](C)(O)C5)nc(OC[C@@]56CCCN5C[C@H](F)C6)nc4c3C)c12` [Example 169, (R)-1-(7-(8-Ethyl-7-fluoro-3-hydroxynaphthalen-1-yl)-2-(((2R,7aS)-2-fluorotetrahydro-1H-pyrrolizin-7a(5H)-yl)methoxy)-8-methylpyrido[4,3-d]pyrimidin-4-yl)-3-methylpiperidin-3-ol]: 40 nM.

As usually defined, the IC50 is the midpoint of a concentration-inhibition curve.
